Assay results from patent US7897723B2, “ErbB receptor-derived peptide fragments” (Københavns Universitet, priority 2006, dated 2011).
Bridges are numbered along the chain shown (N, C = ends). Roman numbers before positions name the chains, in order. Where no end group is shown, it is not given here.

What was measured:
ErbB1 = ErbB1 (Homo sapiens, UniProt P00533); assay: ErbB receptor phosphorylation, HN5 cells; type: cell-based; parameters: the ErbB1 overexpressing human head and neck cancer cell line HN5; endogenous in cells; host or cells: HN5 human head and neck cancer cells; conditions: 100 μM peptide for 30 min, 10 ng/ml EGF for 10 min (FIG. 8)
Procedure: The cells employed for this assay were NR6 wtEGFR cells, which are fibroblastoid cells stably transfected with ErbB1, and human head and neck tumor-derived HN5 cell. Confluent NR6 wtEGFR or HN5 cells were treated with peptide in the indicated concentrations for 30 min, then stimulated with 10 ng/ml EGF (Sigma-Aldrich, St. Louis, Mo., USA) for 10 min. Cells were lysed in lysis buffer (1% (v/v) Triton X-100, 150 mM NaCl, 10 mM Tris pH 7.4, 1 mM EDTA, 1 mM EGTA, 0.5% (v/v) NP-40, phosphatase inhibitors (Phosphatase Inhibitor Cocktail Set II from Calbiochem, La Jolla, Calif., USA) and protease inhibitors (Complete™ Protease Inhibitor Cocktail from Boehringer Mannheim Biochemica, Mannheim, Germany)), and cleared lysate samples containing equal amounts of total protein (as determined by a bicinchoninic acid assay (Pierce, Rockford, Ill., USA)) were subjected in duplicates to 4-12% SDS-PAGE and immunoblotting. One membrane was probed with anti-phospho-EGFR (phosphotyrosine 1068) antibody (Cell Signaling Technology, Danvers, Mass., USA), the other with anti-EGFR antibody (Cell Signaling Technology). Detection was carried out using horseradish peroxidase (HRP)-conjugated secondary antibodies (DAKO, Denmark) and enhanced chemiluminiscence (Pierce). The intensity of bands was quantified using densitometric analysis employing the software package GeneTools (Syngene, Cambridge, UK).

L929 cells = assay: Cell proliferation (BrdU incorporation); type: cell-based; conditions: L929 cells
Procedure: 2000 L929 cells (ECACC no: 85011425) per well were seeded in a 96 well plate in full medium (containing 10% foetal calf serum) or starvation medium (serum-free). Peptides, ErbB1 kinase inhibitor PD153035 (Calbiochem), and EGF (Sigma-Aldrich) were added immediately after seeding of the cells (for experiments done in full serum) or after 8 hours of incubation (for experiments done in starvation medium) in the concentrations indicated in figures. Cells were grown for 6 hours, then 10 μM bromodeoxyuridine (BrdU) was added, and cells were grown for additional 18 hours. Then, BrdU incorporation in the cells was assayed using the Biotrak ELISA System, version 2 from Amersham Biosciences Europe GmbH (Buckinghamshire, UK) following the manufacturer's protocol.

[1] = target: T1, extracellular part of human ErbB2 (Fc chimeric protein) (Homo sapiens, UniProt P04626); assay: Surface plasmon resonance (SPR) binding analysis, ErbB2; conditions: peptide immobilized on sensor chip, mean ± SEM
T1 construct: the Fc protein fused to the extracellular parts of human ErbB2, ErbB3 or ErbB4; purchased R&D Systems Europe (Abingdon, UK)
T1 sequence (P04626 23-652 limits assumed, change not shown): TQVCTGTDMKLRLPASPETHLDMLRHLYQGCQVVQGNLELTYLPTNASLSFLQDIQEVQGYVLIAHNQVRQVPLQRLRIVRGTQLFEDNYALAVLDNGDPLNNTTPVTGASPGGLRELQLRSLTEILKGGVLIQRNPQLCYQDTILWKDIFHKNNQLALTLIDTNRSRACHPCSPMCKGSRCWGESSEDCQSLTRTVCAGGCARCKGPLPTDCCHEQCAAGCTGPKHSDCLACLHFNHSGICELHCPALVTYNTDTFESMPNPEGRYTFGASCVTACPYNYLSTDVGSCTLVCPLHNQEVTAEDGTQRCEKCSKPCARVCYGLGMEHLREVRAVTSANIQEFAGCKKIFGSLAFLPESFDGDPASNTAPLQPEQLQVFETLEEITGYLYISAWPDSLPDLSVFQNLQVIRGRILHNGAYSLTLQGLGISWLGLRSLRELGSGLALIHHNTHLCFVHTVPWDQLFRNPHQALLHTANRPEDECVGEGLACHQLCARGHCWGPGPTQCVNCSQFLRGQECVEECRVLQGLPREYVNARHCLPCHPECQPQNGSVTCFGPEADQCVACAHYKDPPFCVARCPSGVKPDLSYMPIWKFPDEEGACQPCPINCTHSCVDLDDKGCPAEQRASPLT
Procedure: (§1) Binding analyses were performed with the surface plasmon resonance (SPR)-based biosensor instrument BIAcore2000 (BIAcore AB, Uppsala, Sweden), at 25° C. using ready-made HBS-EP buffer (BIAcore AB) as running buffer. Peptides were immobilized on the surface of a CM5 sensor chip (BIAcore AB) using an amine coupling kit (Biosensor AB, Uppsala, Sweden) according to the manufacturer's instructions, at a flow rate of 5 μl/min. Briefly, carboxyl groups on the sensor chip surface were activated by injection of 35 μl activation solution followed by injection of peptide (50 μg/ml peptide in HBS-EP buffer, pH 7.4) until the desired level of immobilized peptide was reached. Unreacted peptide was washed out and unreacted activated groups were blocked by the injection of 35 μl 1 M ethanolamine. […] A reference surface was generated simultaneously under the same conditions but without peptide injection and used as a blank chip control. ErbB receptor proteins were injected at various concentrations at a flow rate of 20 μl/min, and binding to the peptides immobilized on the chip was measured in real-time. The curve corresponding to the difference between signals on flow cells with immobilized peptide and the signal on the blank flow cell was used for analysis. […] Data were analyzed by nonlinear curve fitting using the manufacturer' software. […]

[2] = target: T2, extracellular part of human ErbB4 (Fc chimeric protein) (Homo sapiens, UniProt Q15303); assay: Surface plasmon resonance (SPR) binding analysis, ErbB4; conditions: peptide immobilized on sensor chip, mean ± SEM
T2 construct: the Fc protein fused to the extracellular parts of human ErbB2, ErbB3 or ErbB4; purchased R&D Systems Europe (Abingdon, UK)
T2 sequence (Q15303 26-651 limits assumed): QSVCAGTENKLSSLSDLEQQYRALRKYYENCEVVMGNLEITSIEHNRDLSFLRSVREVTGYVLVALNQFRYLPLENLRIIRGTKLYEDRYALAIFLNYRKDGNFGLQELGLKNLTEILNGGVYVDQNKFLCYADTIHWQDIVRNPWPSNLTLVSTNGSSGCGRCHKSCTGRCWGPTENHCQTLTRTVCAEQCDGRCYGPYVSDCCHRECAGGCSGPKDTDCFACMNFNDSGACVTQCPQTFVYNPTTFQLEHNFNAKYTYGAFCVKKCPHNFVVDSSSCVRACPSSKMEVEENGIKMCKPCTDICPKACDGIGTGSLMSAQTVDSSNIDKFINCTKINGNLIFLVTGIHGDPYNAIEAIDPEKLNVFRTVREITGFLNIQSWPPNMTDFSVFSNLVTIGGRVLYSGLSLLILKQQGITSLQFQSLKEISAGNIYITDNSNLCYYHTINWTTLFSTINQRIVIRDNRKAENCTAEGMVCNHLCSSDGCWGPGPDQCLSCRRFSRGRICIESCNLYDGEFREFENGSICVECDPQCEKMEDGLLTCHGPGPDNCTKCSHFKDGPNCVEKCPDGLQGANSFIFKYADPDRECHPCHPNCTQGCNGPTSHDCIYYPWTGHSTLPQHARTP
Procedure: as §1

HN5 cells = assay: Cell viability / cell growth (MTS staining); type: cell-based, human; conditions: absence and presence of EGF, absence and presence of serum (FIGS. 6A and B)
Procedure: 2000 HN5 cells per well were seeded in a 96 well plate in full medium (containing 10% fetal calf serum) or starvation medium (serum-free). After 12 hours of incubation, peptides or ErbB1 kinase inhibitor PD153035 (Calbiochem) and/or EGF (Sigma-Aldrich) were added in the concentrations indicated in figures. Cells were grown for 72 hours, then 20 μl MTS One Solution Reagent (Promega, Madison, Wis., USA) were added per 100 μl culture medium in each well, and the plates were incubated for 1-2 hours at 37° C., followed by absorbance measurements at 490 nm.

[3] = full medium, BrdU incorporation (FIG. 2, FIG. 3)
[4] = starvation medium, 10 or 100 ng/ml EGF, BrdU incorporation (FIG. 4)

Molecule | effect on EGF-induced cell proliferation (L929 cells; [3]) | KD for binding to ErbB2 [1] | KD for binding to ErbB4 [2] | effect on HN5 cell growth (HN5 cells) | effect on EGF-induced cell proliferation (L929 cells; [4]) | other results
VTYNTDTFESMPNPEGR (Inherbin 2 peptide) [Inherbin2] | able to inhibit EGF-induced cell proliferation significantly |  |  |  |  | effect on EGF-induced ErbB1 phosphorylation (ErbB1): not statistically significant
I: H-MLYNPTTYQMDVNPEGKKK / II: H-MLYNPTTYQMDVNPEGKK / III: H-MLYNPTTYQMDVNPEGK / IV: H-MLYNPTTYQMDVNPEGK (amide I:18-IV:C, I:19-II:C, II:18-III:C) [Inherbin 1DL, MLYNPTTYQMDVNPEGK] |  | No binding | No binding |  |  | 
COc1cc2ncnc(Nc3cccc(Br)c3)c2cc1OC [PD153035, reference compound] |  |  |  | strongly inhibited growth of the cells both in absence and presence of EGF-stimulation and in the absence and presence of serum | blocked cell proliferation induced by stimulation with either 10 or 100 ng/ml EGF | 
KHKLPYNFNLETTVQPL (also: tetrameric dendrimer on lysine backbone) [Scr-Inherbin3d, reference compound] |  |  |  | no significant effects on HN5 cell growth |  | 
Inherbin3n: truncated peptide constituting the N-terminal half of the Inherbin3 peptide (possibly B3dln, SEQ ID NO: 36) (PLVYNKLT; B3dln peptide) | inhibited EGF-induced cell proliferation to the same extent as Inherbin3 |  |  |  |  | 
I: LVYNKLTFQLEPNPHTKKK / II: LVYNKLTFQLEPNPHTKK / III: LVYNKLTFQLEPNPHTK / IV: LVYNKLTFQLEPNPHTK (amide I:18-IV:C, I:19-II:C, II:18-III:C) [Inherbin3d] |  | No binding | No binding |  | inhibited EGF-induced cell proliferation | peptide doses that significantly inhibited cell proliferation (L929 cells; proliferation induced by either 10 or 100 ng/ml EGF (FIG. 4)): ≥ 0.6 µM
